According to patent publication US20090131351A1, “Methods, compositions, and kits for modulating tumor cell proliferation” (Antisoma Research Limited, priority 2007, published 2009):
“And” between values parts separate entries of the source, which are not always exact repeats. Equal values may be shown once.

What was measured:
PANC-1 = test: Tumor cell line sensitivity to AS1411; assay type: cell-based
HT-29 = test: Tumor cell line sensitivity to AS1411; assay type: cell-based
SKOV-3 = test: Tumor cell line sensitivity to AS1411; assay type: cell-based
MCF-7 = test: Tumor cell line sensitivity to AS1411; assay type: cell-based
SK-MEL-28 = test: Tumor cell line sensitivity to AS1411; assay type: cell-based
A498 = test: Tumor cell line sensitivity to AS1411; assay type: cell-based
DU-145 = test: Tumor cell line sensitivity to AS1411; assay type: cell-based
KATO III = test: Tumor cell line sensitivity to AS1411; assay type: cell-based
[1] = tested on: MV4-11 cells (AML cell line); test: Sulphorhodamine B assay, MV4-11 cells; assay type: cell-based, human; conditions: 6 days
Protocol: 1 μM AS1411 was added with varying concentrations of cytarabine (0.002 to 1.5 μM) and cells were incubated for 6 days. A control was run with the 1 μM AS1411 without cytarabine. A second control series was run with the varying amounts of cytarabine but with no AS1411 present.
The remaining cell mass after exposure to AS1411 was measured with a spectrophotometer and IC50 determined.

CALU06 = test: Tumor cell line sensitivity to AS1411; assay type: cell-based
HGC.27 = test: Tumor cell line sensitivity to AS1411; assay type: cell-based
PC3 = test: Tumor cell line sensitivity to AS1411; assay type: cell-based
LS174T = test: Tumor cell line sensitivity to AS1411; assay type: cell-based
U87-MG = test: Tumor cell line sensitivity to AS1411; assay type: cell-based
[2] = tested on: human AML cell line MV4-11 xenografts; test: Combination therapy in a xenograft mouse model; assay type: in vivo, nu/nu MF1 mouse; conditions: for Fractional Tumor Volume (FTV) relative to untreated controls: single agent; for Average volume of tumors at 7 days post-treatment (tumor volume change): group average, Cytarabine 80 mg/kg/daily i.p.; for Average volume of tumors at 7 days post-treatment (tumor volume change) / Volume of individual tumors at 7 days post-treatment (indicating tumor volume change): day 7, AS1411 40 mg/kg/day s.c. minipump; for Volume of individual tumors at 7 days post-treatment (indicating tumor volume change): individual mice, Cytarabine 80 mg/kg/daily i.p. 5 days
Protocol: The nu/nu MF1 mouse strain has been used previously at these laboratories and background data are available. A total of 50 female MF1 mice were obtained from the Biological Research Facility, SGHMS, London) in a weight range of 5 to 6 weeks of age (nominally 23-28 g). Mice were individually identified using a subcutaneously implanted microchip.
The xenografts were prepared from the human AML cell line MV4-11 (DSMZ Number: CCL-102). Cells were grown in accordance with Standard Operating Procedures (SOP) and established methodology; suitable methods are known in the art. Cells were suspended at 2.0×10^8 cells/ml in ice-cold PBS, mixed 1:1 with ice-cold Matrigel™ Matrix (BD Biosciences, Lot 61459) and kept on ice until the time of injection into animals. Mice were injected subcutaneously with 100 μl cell suspension on the right flank.
Animals were checked regularly until visible tumors appeared. Tumors were measured in accordance with the relevant SOP twice per week and tumor volume calculated using the formula: Volume=(π÷6000)×(Tumor Length×Tumor Width×Tumor Height).
Measurements commenced approximately one week before the day of treatment when the xenograft had reached a volume of >0.03 cm^3.
Once the tumors were established, mice were allocated into groups using a randomisation procedure based on stratified xenograft volume. Measurements were recorded electronically using electronic calipers and the Trojan system for data capture.
Day 0 is defined as the day on which the average tumor volume is between 0.07 to 0.08 cm^3. Relative tumor volume on Day 0 is defined as 1.
AS1411 (manufactured by Avecia, UK, batch number: AQV-07H-005; expiry date 02/2009) was given by continuous infusion using ALZET mini-osmotic pumps (Durect Corp. CA, USA). The mini-pumps were implanted subcutaneously on days 0 on the left flank of mice (opposite to the tumor location). Mice received a dose of 40 mg/kg/day with a dose-volume of 1 μl/h lasting for 7 days. The minipumps were then removed and a second drug-loaded minipump implantation in the same location to last a further 7 days.
The intraperitoneal route of administration of Cytarabine was selected. Mice were administered with Cytarabine (DBL, Australia; batch number: TO11966AA; expiry date 02/2009) at 80 mg/kg/daily for 5 consecutive days with a dose-volume of 8 μl/g body weight starting on day 0. After 2 days gap a second cycle of a similar 5-day dosing was initiated on day 7. Control mice were untreated.
Mice (n=10) were allocated to groups as follows: • Untreated controls • Cytarabine alone • AS1411 alone • Cytarabine+AS1411
The Fractional Product method was used to analyse the combination therapy (Yokohama et al., 2000, Cancer Res., 60:2190-6). According to this method, the effects of two drugs, when combined, can be calculated by multiplying the fractional tumor volume (treated volume/control volume on a given day) by each single drug. If the effect of the drugs acting simultaneously is equal to or larger than that calculated, it would be assumed that additivity, or synergism, respectively, has occurred.
[Mean tumor volume test]/[Mean tumor volume control]
[Mean FTV of […]]×[Mean FTV of AS1411]
[Expected FTV]/[Observed FTV]
A combination therapy index R>1.0 indicates a synergistic effect.
A combination therapy index R<1.0 indicates a less than additive effect.

B cells = test: Effect of AS1411 on normal cells; assay type: cell-based; conditions: similar concentrations of AS1411
From the text: (§1) Multiple haematological cancer cell lines were exposed to varying concentrations of AS1411 over a period of 6 days according to the Sulphorhodamine B assay described in Example 1. […] (See FIG. 2). […] Normal fibroblast and B cells were however unaffected by similar concentrations of AS1411.

Normal fibroblast = test: Effect of AS1411 on normal cells; assay type: cell-based; conditions: similar concentrations of AS1411
From the text: as §1

KG-1 (AML cell line) = test: Sulphorhodamine B assay, KG-1 cells; assay type: cell-based; conditions: 6 days, SRB
Protocol: (§2) MV4-11 cells (AML cell line available and obtained from ATCC under catalogue number CRL-9591) were seeded in wells of a 96-well plate at a number optimised for each cell line. 1 μM AS1411 was added with varying concentrations of cytarabine (0.002 to 1.5 μM) and cells were incubated for 6 days. A control was run with the 1 μM AS1411 without cytarabine. A second control series was run with the varying amounts of cytarabine but with no AS1411 present.
(§3) Cells were then washed, fixed to the 96-well plate and exposed to the dye Sulphorhodamine B (SRB; available from Sigma-Aldrich, Dorset, UK; catalogue number S-1402). The remaining cell mass after exposure to AS1411 was measured with a spectrophotometer and IC50 determined.
as §1

AML cell line = test: Apoptosis, caspase, DNA fragmentation, PS externalization and cell cycle effects of AS1411 in AML cell line; assay type: cell-based; conditions: AS1411 administered to AML cell line
A549 = test: Tumor cell line sensitivity to AS1411; assay type: cell-based
HL-60 (AML cell line) = test: Sulphorhodamine B assay, HL-60 cells; assay type: cell-based; conditions: 6 days, SRB
Protocol: as §2, §3, §1

ZR75-1 = test: Tumor cell line sensitivity to AS1411; assay type: cell-based

“5′-GGTGGTGGTGGTTGTGGTGG TGGTGG-3′ [AS1411]” was tested, and the “sensitivity to AS1411” value (PANC-1) was “sensitivity”, the “sensitivity to AS1411” value (HT-29) was “sensitivity” and the “sensitivity to AS1411” value (SKOV-3) was “sensitivity”. The “sensitivity to AS1411” value (MCF-7) was “sensitivity”, the “sensitivity to AS1411” value (SK-MEL-28) was “sensitivity” and the “sensitivity to AS1411” value (A498) was “sensitivity”. The “sensitivity to AS1411” value (DU-145) was “sensitivity”, the “sensitivity to AS1411” value (KATO III) was “sensitivity” and the IC50 ([1]; AS1411 alone, SRB) was “low”. The “sensitivity to AS1411” value (CALU06) was “sensitivity”, the “sensitivity to AS1411” value (HGC.27) was “sensitivity” and the “sensitivity to AS1411” value (PC3) was “sensitivity”. The “sensitivity to AS1411” value (LS174T) was “sensitivity”, the “sensitivity to AS1411” value (U87-MG) was “sensitivity” and the “Relative tumor volume (relative to tumor volume at Day 0 of treatment)” value (“Relative tumor volume” below) ([2]; Day 0 (defined as 1)) was 1.000. For the same molecule, the “Relative tumor volume” value ([2]; Day 4) was 2.500, the “Fractional Tumor Volume (FTV) relative to untreated controls” value ([2]; Day 4) was 0.848 and the “Relative tumor volume” value ([2]; Day 7) was 3.900. The “Fractional Tumor Volume (FTV) relative to untreated controls” value ([2]; Day 7) was 0.915, the “Average volume of tumors at 7 days post-treatment (tumor volume change)” value [2] was “Average = 3.9” and the “Volume of individual tumors at 7 days post-treatment (indicating tumor volume change)” value [2] was 3.5 and 5.9 and 3.0 and 3.3 and 4.8 and 5.5 and 2.5 (2×) and 3.8 and 4.5 and 1.1. The “effect on normal cells” value (B cells) was “unaffected”, the “effect on normal cells” value (Normal fibroblast) was “unaffected” and the IC50 (KG-1 (AML cell line)) was “low”. For the same molecule, the DNA fragmentation (AML cell line) was “dose-dependent increase”, the PS externalization (AML cell line) was “increase” and the apoptosis (AML cell line) was “induction”. For the same molecule, the caspase activity (AML cell line) was “increase”, the “cell cycle effect in tumor cells” value (AML cell line) was “arrest at the S-phase” and the “sensitivity to AS1411” value (A549) was “sensitivity”. For the same molecule, the IC50 (HL-60 (AML cell line)) was “low” and the “sensitivity to AS1411” value (ZR75-1) was “sensitivity”.

In the case of `Nc1ccn([C@@H]2O[C@H](CO)[C@@H](O)[C@@H]2O)c(=O)n1` [Cytarabine, 1β-arabinofuranosylcytosine, reference compound], the “reduction of IC50 of cytarabine by combination with AS1411” value ([1]; cytarabine 0.002 to 1.5 μM with 1 μM AS1411 vs cytarabine alone) is reported as “more than three-fold”, the “Relative tumor volume” value ([2]; Day 0 (defined as 1)) is reported as 1.000 and the “Relative tumor volume” value ([2]; Day 4) is reported as 1.900. For the same molecule, the “Fractional Tumor Volume (FTV) relative to untreated controls” value ([2]; Day 4) was 0.713, the “Relative tumor volume” value ([2]; Day 7) was 3.100 and the “Fractional Tumor Volume (FTV) relative to untreated controls” value ([2]; Day 7) was 0.844. The “Average volume of tumors at 7 days post-treatment (tumor volume change)” value [2] was “Average = 3.1” and the “Volume of individual tumors at 7 days post-treatment (indicating tumor volume change)” value [2] was 7.2 and 3.5 and 2.8 and 1.5 and 2.4 (2×) and 3.4 and 2.5 and 2.2 and 1.1.
